# From a melting point compilation (Tetko et al.; mined from patent text by program, amines drawn as free bases though some values may be those of a salt)
row,Structure (SMILES),melting point [°C]
1,CNC(=O)n1sc(OC2CCCCC2)nc1=O,121
2,Nc1ncc(Sc2ccc(F)cc2F)s1,116 to 117
3,COC(=O)c1cc(Cl)c(NC(C)=O)c([N+](=O)[O-])c1O,166 to 169
4,[N-]=[N+]=NCC1Cc2cc(I)c3[nH]c(=O)ccc3c2O1 (centres undefined),175
5,CCSC(N)=C(C#N)C#N,180 to 182
6,COC(=O)c1nc2cc(F)ccc2c(O)c1C(=O)OC,228
7,O=C(O)c1cc[nH]c1Sc1ccc(Cl)cc1Cl,160 to 164
8,CCCCCC(CCn1ccnc1)SCc1ccc(Cl)cc1Cl (centres undefined),124 to 126
9,COc1ccc(C2=NN(C3CCN(C(=O)N4CCOCC4)CC3)C(=O)[C@H]3CC=CC[C@@H]23)cc1Cl (relative stereo),185 to 186
10,COC(=O)c1ccc(OCCCC#N)c(Cl)c1,144
11,CC(=O)OC1CCC2(C)C(=CCC3C4CC(OC(C)=O)C(=O)C4(C)CCC32)C1 (centres undefined),173 to 174
12,CCCCOc1c(CO)n(CC(C)(C)C)c(=O)c2ccc(OCC)cc12,92.5 to 93
13,COC(C)=C(C(=O)OC(c1ccccc1)c1ccccc1)N1C(=O)C(NC(=O)C(NC(=O)OC(C)(C)C)c2ccccc2)C1SS(=O)(=O)c1ccc(C)cc1 (centres undefined),204 to 206
14,C=CC(=O)OCC=C(C)CCC=C(C)CCC=C(C)CCC=C(C)CCC=C(C)CCC=C(C)CCC=C(C)CCC=C(C)CCC=C(C)CCC=C(C)C,32 to 32.8
15,Cc1[nH]c(C(C)(C)C)nc1C=O,196 to 198
16,CCCCCCCN(CCCCCSc1nc2cc(C)ccc2[nH]1)C(=O)Nc1ccc(F)cc1F,70 to 72
17,O=S1(=O)N=CN(C2CCCCCC2)c2cc(Cl)ccc21,209 to 211
18,Cc1ccncc1C(O)c1ccc2cc(C(=O)OC(C)C)ccc2c1 (centres undefined),180 to 183
19,COc1ccccc1N1CCN(S(=O)(=O)c2ccc(Nc3ccnc4cc(C(F)(F)F)ccc34)cc2)CC1,146 to 148
20,CC(C)Oc1cccc(Nc2cc(-c3c[nH]nc3-c3ccccn3)ccn2)c1,218
21,Cc1ccc2cccc(N3CCNCC3)c2n1,163 to 164
22,CC(C#Cc1ccc(F)cc1)N(O)C(N)=O (centres undefined),156 to 158

# The next lines start with the values.
row,melting point [°C],Structure (SMILES)
1,220,CC(C)N1CC(C(=O)c2c[nH]c(Cc3ccc(F)cc3)n2)=C(O)C1=O
2,178 to 179,Cc1ccc(O)c(C(=O)OCC=Cc2ccccc2)c1
3,157 to 159,O=S(=O)(Nc1cccc(OCc2ccc3ccccc3n2)c1)c1ccc(Cl)cc1
4,97 to 98,CC(=O)c1ccc(Cc2c(Cl)cc(N)cc2Cl)cc1
5,100,CCN(CC)C(=O)Oc1cc(-c2ccccn2)nc2ccccc12
6,100 to 102,COC(=O)[C@H](c1ccccc1Cl)N1CCc2sc(OC(=O)c3ccc([N+](=O)[O-])cc3)cc2C1
7,156,Cc1cccc(-c2nc3ccccn3c2-c2ccnc(-c3ccc(CN4CCOCC4)cc3)c2)n1
8,92 to 93,O=C1OC(Cc2ccc([N+](=O)[O-])cc2)C(=O)N1Cc1ccccc1 (centres undefined)
9,121 to 128,O=C(NCCO)c1cccc(-c2ccc3c(c2)N(Cc2cc(Cl)cc(Cl)c2)CC3)c1
10,204,O=C(CN1CCN(CCCC(c2ccc(F)cc2)c2ccc(F)cc2)C(C(=O)O)C1)Nc1c(Cl)cccc1Cl (centres undefined)
11,203 to 208,Cc1coc(C)c1-c1nc2ccc(C(=O)c3ccccc3)cc2[nH]1
12,180 to 182,CCCc1ccc(-c2ccc(=O)[nH]n2)cc1
13,> 30,Cn1c(-c2ccccc2)cc(=O)c2cc(C(=O)O)ccc21
14,218 to 221,Clc1cccc(-c2nc(NC3CCCCC3)c3ccccc3n2)n1
15,83.2 to 84.5,O=C(CCCC=CCC1C(O)CC(O)C1C=CC(O)CCc1ccccc1)ON1C(=O)c2ccccc2C1=O (centres undefined)
16,196 to 197,O=C1N(Cc2ccc(OCCO)cc2)c2ccccc2C12COc1cc3c(cc12)OCCO3 (centres undefined)
17,125 to 126,C/C(NCCCc1ccccc1)=C(\C#N)C(N)=S
